One molecule from article PMC8209957 (Cell, 2021) can be followed below.

In this assay the target is MEK1-C222 (Homo sapiens, UniProt Q02750, S222C/C277S/C376S). Put plainly: differential scanning fluorimetry. Format: binding. The following applies: thermal shift with and without Mg2+; values only in figure.

Regarding `Nc1ncnc2c1ncn2[C@@H]1O[C@H](COP(=O)(O)OP(=O)(O)OP(O)(O)=S)[C@@H](O)[C@H]1O` [ATPγS], the differential scanning fluorimetry entry is “to form MEK1•ATP(±Mg) and MEK1•ATPγS(±Mg)”.
